# Publication PMC7358525, “Characterization of PF-6142, a Novel, Non-Catecholamine Dopamine Receptor D1 Agonist, in Murine and Nonhuman Primate Models of Dopaminergic Activation” (Frontiers in Pharmacology, 2020)
# Tests used:
# [1] = Plasma exposure (PK), NHP; type: in vivo; settings: 0.1 mg/kg SC, 0.5 h
# Description: Across the set of experiments, PK was either collected from satellite animals or in separate, dedicated studies. In addition to plasma PK, exposures were obtained in brain tissue for rat and mouse, and plasma protein binding and brain tissue binding were measured. Using the measured exposures, partitioning, and binding parameters, and the […]
# [2] = test system: conditioned avoidance responding; test: Rat conditioned avoidance response (CAR); type: in vivo
# Description: The CAR assay was performed under similar conditions previously described ([Marquis et al., 2011]) at WuXiAppTec Inc. (Delin Rd. #90, Waigaoquiao Free Trade Zone, Shanghai 200131, China). For this study, adult male Fisher-344 rats were trained and tested in a two-way active avoidance apparatus with MED-PC software (MED Associates, St. Albans, VT, USA).
# Briefly, subjects were handled and acclimated to the shuttle boxes for 2 d prior to training sessions. During training sessions, subjects were trained to avoid an electric footshock by moving to the adjacent, non-stimulus side of the shuttle box upon presentation of tone + light stimuli which preceded the presentation of the footshock (0.6 mA, 10 s duration) by 10 s. For this assay an avoidance was defined as moving to the adjacent compartment during the tone+light presentation that preceded the shock, an escape was defined as moving to the adjacent compartment upon presentation of the shock, and an escape failure was defined as a lack of relocation to the adjacent compartment throughout the presentation of the shock. Subjects received 30 trials of training per day for 5 d. Subjects with ≥ 80% avoidance responses on two consecutive days with no escape failures, were considered qualified for testing, and were randomized across treatment groups (n=8–9 per treatment group). […] Avoidance responding was calculated as % of the number of total trials in which an avoidance occurred. Data were calculated for each animal and compared across treatment groups using one-way ANOVA with Dunnett’s post-test versus the vehicle + vehicle treated group.
# human D5 receptor = settings: stated in discussion, no data or reference printed; cited from earlier work
# mouse locomotor activity = test: Mouse locomotor activity (LMA); type: in vivo
# Description: Locomotor activity data were measured by an automated infrared photo-beam system in sound attenuating chambers controlled by Versamax® software, provided by Accuscan Instruments Inc. (Columbus, Ohio), which quantified beam breaks similar to the methods used previously ([Xu et al., 2000]). To test D1 receptor selectivity in a pharmacologic model, C57BL/6J mice were habituated to the apparatus for 90 min, followed by pretreatment with vehicle or SCH-23390 (0.01, 0.032, 0.1 0.32, s.c.) and returned to the apparatus for 30 min. […] Data were compared against the vehicle group using a repeated measures one-way ANOVA with a Dunnett’s post-test. To test D1 receptor selectivity in a genetic model, DRD1a WT and knockout mice (D1 KO) were habituated to the apparatus for 90 min, pretreated with vehicle or SCH-23390 (0.032 mg/kg, s.c.) and returned to the apparatus for 30 min. […] Data were compared within genotype using a two-way ANOVA with a Dunnett’s post-hoc test versus vehicle treated group.
# [3] = test system: time spent awake, in SWS and REM sleep; test: Rat polysomnography; type: in vivo; settings: 5.6 mg/kg s.c., first 4 h
# Source text: Model 4ET telemetry device components (Data Sciences International, St Paul, MN, USA) were bilaterally placed in subcutaneous pockets on the dorsal flank of adult male Sprague-Dawley rats (200–400 grams). Two pairs of leads were implanted superficially to burr holes drilled over the frontal cortex (stainless steel screws, Plastics One, Roanoke, VA at coordinates: A-P = +1.5 mm, M-L = 1.5 mm) and parietal cortex (coordinates: A-P = −3.7 mm, M-L = −2.2 mm), and the cerebellum bilaterally to be used as ground and reference for electroencephalographic (EEG) recordings. A stainless-steel wire (Plastics One, Roanoke, VA) was implanted into the neck muscle to monitor electromyogram (EMG). All recordings were performed inside the home cages of animals using RPC-2 telemetry receivers (Data Sciences International, St. Paul, MN) at a sampling rate of 500 Hz for data acquisition. Baseline data, while on vehicle, were obtained for 24 h prior to compound administration. PF-6142 (1.0 or 5.6 mg/kg, s.c.) was administered acutely following the baseline day.
# Raw EEG traces were analyzed using custom scripts in MATLAB (The Mathworks, Natick, MA, version 7.8 (R2009a)) to evaluate spectral changes between treatment groups. Raw EEG data were read into the MATLAB software, segmented to match that of the polysomnography (PSG) data (see below) and fast Fourier transforms (FFTs) were performed. Only data collected on the parietal lead were the subject of statistical analyses. PSG analysis was applied to all EEG/EMG data and utilized an in-house algorithm developed in LabView (National Instruments, Austin TX) as previously described ([Harvey et al., 2013]).
# Relative power data in each band aggregated over 2 h-long time bins, while on drug, were normalized to baseline levels in corresponding time bins relative to dosing. For statistical analysis the R software was used. The effects of two within factors, dose and time, on cumulative time spent in three stages, awake, REM, and NREM sleep were assessed using generalized linear mixed model. […]
smiles,measurement,setting,value
Cc1cc(Oc2nccc3occc23)ccc1-c1c(C)ncc2nccn12 [PF-6142],PF-6142 plasma concentration,[1],31 ng/mL
same,% avoidance responses,[2]; PF-6142 1.78 mg/kg s.c. + risperidone 0.1 mg/kg s.c.,76.25%
same,% avoidance responses,[2]; PF-6142 1.78 mg/kg s.c. + risperidone 0.56 mg/kg s.c.,8.125%
same,% avoidance responding,"[2]; PF-6142 1.78 mg/kg s.c. alone, combination study (Figure 4D)",94.38%
same,mean % avoidance responses,[2]; PF-6142 alone 0.32 mg/kg s.c.,95.93%
same,mean % avoidance responses,"[2]; PF-6142 alone 1.78 mg/kg s.c., dose-range study",98.47%
same,mean % avoidance responses,[2]; PF-6142 alone 3.2 mg/kg s.c.,95.57%
same,mean % avoidance responses,[2]; PF-6142 alone 5.6 mg/kg s.c.,95.75%
same,affinity,human D5 receptor,moderate affinity
same,"horizontal activity, five consecutive days of dosing",mouse locomotor activity; 1.78 mg/kg daily,did not significantly increase horizontal activity
same,"horizontal activity, five consecutive days of dosing","mouse locomotor activity; 3.2 mg/kg s.c. daily (p=0.0311 day 4, p=0.0309 day 5)",only increased activity significantly on days 4 and 5
same,"locomotor activity, five consecutive days of dosing","mouse locomotor activity; 10 mg/kg s.c. daily, CD-1 mice",increased locomotor activity
same,locomotor activity,"mouse locomotor activity; D1 KO mice, 10 mg/kg s.c. (p=0.6731)",did not show hyperactivity
same,locomotor activity,"mouse locomotor activity; WT mice, 10 mg/kg s.c.",increased activity in the WT mice
same,"horizontal activity (beam breaks, 2 h)","mouse locomotor activity; acute 0.32-10 mg/kg s.c., significant at 10 mg/kg (p<0.0001)",dose-dependently increased horizontal activity
same,decrease of time spent in slow-wave sleep relative to vehicle,[3],88.1%
same,"difference in fraction of REM sleep, vehicle vs high dose group",[3],88.2%
same,increase of time spent awake,[3],246.9%
